Experimental data: patent US10561624B2, “Methods and materials for the treatment of testosterone deficiency in men” (REPROS THERAPEUTICS INC., priority 2001, dated 2020)
“And” between values parts separate entries of the source, which are not always exact repeats. Equal entries are not always repeated. “Also recorded” adds a separate entry of the source. Structures can show the parent of a compound that is named as a salt.

Key:
Adult, male, Baboons [1] = assay: Effects on body weight and serum LH, FSH, PRL in male baboons; type: in vivo; conditions: during the study
Description: (§1) The samples analyzed were sera taken on the day of first treatment before being given test article (day 0), after 12 days of treatment (day 12) and 7 days after the last treatment (end or wash-out).

Adult, male, Baboons [2] = assay: Effects on clinical chemistry parameters in male baboons; type: in vivo; conditions: for serum glucose: changes within the normal range; for anionic gap: day 12 of treatment and 7 days after treatment (washout); for Alkaline phosphatase (ALP): following treatment; for serum cholesterol: not statistically significant, within the normal range
Description: as §1

[3] = Ernst et al.; cited from earlier work
Adult, male, Baboons [4] = assay: Effects of Clomids on serum testosterone in male baboons; conditions: for effect on total serum testosterone / Serum Testosterone Levels, 12 days: 1.5 mg/kg for 12 consecutive days; for effect on total serum testosterone: male baboons; for Serum Testosterone Levels, 6 days, mean / Serum Testosterone Levels, 12 days, mean / Serum Testosterone Levels, wash-out, mean / Serum Testosterone Levels, baseline, mean / Serum Testosterone Levels, 0 day, mean: group mean of 3 baboons; for Serum Testosterone Levels, 6 days, mean / Serum Testosterone Levels, 6 days: 1.5 mg/kg daily, day 6; for Serum Testosterone Levels, 12 days, mean: 1.5 mg/kg for 12 days; for Serum Testosterone Levels, 12 days, mean / Serum Testosterone Levels, 12 days: day 12; for Serum Testosterone Levels, wash-out, mean / Serum Testosterone Levels, wash-out: 7 days after the last treatment; for Serum Testosterone Levels, baseline, mean: before treatment; for Serum Testosterone Levels, 0 day, mean / Serum Testosterone Levels, 0 day: day 0, before first dose; for Serum Testosterone Levels, 6 days / Serum Testosterone Levels, 12 days / Serum Testosterone Levels, wash-out / Serum Testosterone Levels, baseline / Serum Testosterone Levels, 0 day: individual baboon; for Serum Testosterone Levels, 6 days / Serum Testosterone Levels, 12 days: 1.5 mg/kg; for Serum Testosterone Levels, baseline: baseline Dec. 3, 2001, before treatment
Description: as §1

men = conditions: cited from earlier work
[5] = cited from earlier work

Structure (SMILES) | serum glucose (Adult, male, Baboons [2]) | anionic gap (Adult, male, Baboons [2]) | Alkaline phosphatase (ALP) (Adult, male, Baboons [2]) | red blood cell population (Adult, male, Baboons [2]; in vivo) | serum cholesterol (Adult, male, Baboons [2]) | estrogenic / antiestrogenic activity [3] | effect on total serum testosterone (Adult, male, Baboons [4]) | Serum Testosterone Levels, 6 days, mean (Adult, male, Baboons [4]) | Serum Testosterone Levels, 12 days, mean (Adult, male, Baboons [4]) | Serum Testosterone Levels, wash-out, mean (Adult, male, Baboons [4]) | Serum Testosterone Levels, baseline, mean (Adult, male, Baboons [4]) | Serum Testosterone Levels, 0 day, mean (Adult, male, Baboons [4]) | Serum Testosterone Levels, 6 days (Adult, male, Baboons [4]) | Serum Testosterone Levels, 12 days (Adult, male, Baboons [4]) | Serum Testosterone Levels, wash-out (Adult, male, Baboons [4]) | Serum Testosterone Levels, baseline (Adult, male, Baboons [4]) | Serum Testosterone Levels, 0 day (Adult, male, Baboons [4]) | also measured
CCN(CC)CCOc1ccc(/C(=C(\Cl)c2ccccc2)c2ccccc2)cc1 [Enclomid, trans-clomiphene] | no increases with treatment | raised this parameter towards normal values | decreased in value | substantive effects | tended to decrease | antiestrogenic | significant increases in total serum testosterone; also recorded: more effective than Clomid or Zuclomid | 1144.4 ng/dL | 1088.5 ng/dL | 325.8 ng/dL | 134.0 ng/dL | 105.0 ng/dL | 1223.8 ng/dL and 1128.2 ng/dL and 1081.1 ng/dL | 633.6 ng/dL and 1466 ng/dL and 1166 ng/dL | 307.2 ng/dL and 399.2 ng/dL and 271 ng/dL | 64.57 ng/dL and 166.86 ng/dL and 170.45 ng/dL | 74.96 ng/dL and 133.59 ng/dL and 106.47 ng/dL | serum prolactin (PRL) (Adult, male, Baboons [1]): decrease; platelets (Adult, male, Baboons [2]; 12-day treatment, values stayed within the normal range): clear effect; serum creatinine (Adult, male, Baboons [2]; between day 0 and Day 12): no differences; counts of lymphocytes and eosinophiles (Adult, male, Baboons [2]; in vivo): raising the counts; count and percent lymphocytes (Adult, male, Baboons [2]; mean percent remains in the normal range): increase; percent of granulocytes in the blood (Adult, male, Baboons [2]; very strong after the 7-day washout, below the normal range): strong effect; change of total serum testosterone after cessation of treatment (Adult, male, Baboons [4]; between day 12 and day 18 (washout)): significant drop; total serum testosterone on days 6 and 12 compared with baseline or day 0 (FIG. 3 time course) (Adult, male, Baboons [4]; days 6 and 12 vs baseline or day 0): significantly and statistically raised total serum testosterone; clearance from the circulation (Adult, male, Baboons [4]; inferred from testosterone drop after cessation): readily cleared from the circulation
CCN(CC)CCOc1ccc(C(=C(Cl)c2ccccc2)c2ccccc2)cc1 [Clomid, clomiphene citrate] | increase | lower values than the Enclomid group |  |  |  |  |  | 559.3 ng/dL | 588.7 ng/dL | 203.6 ng/dL | 111.5 ng/dL | 161.4 ng/dL |  |  |  |  |  | LH, FSH, and testosterone after 2 months (men; Guay et al. 1995, 2 months): increase in LH, FSH, and testosterone; erectile dysfunction (men; Guay et al. 1995, 2 months): no effects on erectile dysfunction; FSH, LH in young and old men (men; Tenover et al. 1987): increased in FSH, LH; free and total testosterone in men (men; Tenover et al. 1987): increases in free and total testosterone; semen quality or fertility (men; WHO study, 6 months of treatment): no changes in semen quality or fertility; side effects (men; approved cis/trans mixture): blurred vision, abdominal discomfort, gynecomastia, testicular tumors, vasomotor flushes, nausea, and headaches; genotoxicity and tumor enhancement (men; other studies): genotoxic and tumor enhancement effects; variability of total testosterone levels (coefficients of variations) (Adult, male, Baboons [4]; day 6 and later, compared to animals receiving Enclomid): more variable total testosterone levels; Serum Testosterone Levels, 6 days (Adult, male, Baboons [4]; listed as CLO): 940.97 ng/dL and 585.92 ng/dL and 151.12 ng/dL; Serum Testosterone Levels, 12 days (Adult, male, Baboons [4]; listed as CLO): 891.5 ng/dL and 555.6 ng/dL and 318.9 ng/dL; Serum Testosterone Levels, wash-out (Adult, male, Baboons [4]; listed as CLO): 150.9 ng/dL and 316.3 ng/dL and 143.6 ng/dL; Serum Testosterone Levels, baseline (Adult, male, Baboons [4]; listed as CLO): 79.01 ng/dL and 97.55 ng/dL and 158.06 ng/dL; Serum Testosterone Levels, 0 day (Adult, male, Baboons [4]; listed as CLO): 76.15 ng/dL and 305.24 ng/dL and 102.94 ng/dL
CCN(CC)CCOc1ccc(/C(=C(/Cl)c2ccccc2)c2ccccc2)cc1 [Zuclomid, cis-clomiphene] | increase | lower values than the Enclomid group | not elevated | substantive effects | tended to increase | more potent and more estrogenic | did not raise total serum testosterone to any extent; also recorded: not effective | 178.5 ng/dL | 357.9 ng/dL | 498.1 ng/dL | 170.6 ng/dL | 394.2 ng/dL | 137.51 ng/dL and 169.98 ng/dL and 227.95 ng/dL | 314.5 ng/dL and 406.1 ng/dL and 353.0 ng/dL | 359.7 ng/dL and 860.5 ng/dL and 274.1 ng/dL | 124.84 ng/dL and 104.66 ng/dL and 282.29 ng/dL | 210.4 ng/dL and 67.37 ng/dL and 904.82 ng/dL | AST (Adult, male, Baboons [2]; in vivo): lowering; hematocrit (Adult, male, Baboons [2]; in vivo): substantive effects; half-life ([5]; relative to the other isomer in Clomid): longer half-life; residual blood levels following a single dose ([5]; reported in literature): in excess of one month
